Consider 1 compound from patent US5762953A, “Transdermal propentofylline compositions for the treatment of Alzheimers disease” (Theratech, Inc., priority 1996, dated 1998).

For data set [1] the following is noted: cited from earlier work.
For data set [2] the following is noted: oral treatment; cited from earlier work.
A further data set concerns nucleoside transport. The following applies: cerebral ischemia; cited from earlier work.
Data set [3] can be described thus: In vitro skin flux study of reservoir formulations, heat separated human epidermal membrane, modified Franz diffusion cells. In kind it is in vitro ADME. Here is the method:
Two reservoir type formulations (I and II) were prepared for the determination of initial propentofylline skin flux rates.
Approximately 4.0 ml of a base solution was prepared in a 7 ml glass vial. This solution consisted of 50% v/v of ethanol, USP; 15% v/v purified water (18 Mohm-cm); 30% v/v glycerin, USP; 1% v/v of glycerol monooleate (GMO, "Myverol® 18-99); 1% v/v methyl laurate (ML). To one solution was added sufficient propentofylline provide a concentration of about 72 mg/ml of solution (Formulation I) and to the other was added sufficient propentofylline to provide a concentration of about 131 mg/ml of solution (Formulation II). To each solution was added about 3% v/v of hydroxypropyl methylcellulose (Methocel® E10M) as a thickening agent. […]
Dermatomed (≈[…]) full thickness human cadaver skin was obtained from skin banks. […] Information on age, race, sex and anatomical site of the donor skin was recorded when available.
[…] skin flux studies were conducted using a heat separated human epidermal membrane and modified Franz diffusion cells. […] At predetermined time points, the entire contents of the receiver compartment were collected for drug quantitation,and the receiver compartment refilled with fresh receptor medium, taking care to eliminate any air bubbles at the skin/solution interface. […]

For data set [4] the following is noted: cited from earlier work. This is another data set of the same source.

`CCCn1cnc2c1c(=O)n(CCCCC(C)=O)c(=O)n2C` [propentofylline, 1-(5'-oxohexyl)-3-methyl-7-propylxanthine]: the plasma propentofylline concentration in data set [1] (2 hours following a single 300 mg oral dose, concluded from literature PK data) is roughly 10 ng/mL. Moreover, in data set [1] (humans), the elimination half-life was 15 to 45 min and the “hepatic first pass metabolism” value was “extensive hepatic first pass metabolism primarily to inactive metabolites”. For the same compound, in data set [1] (oral, humans), the “absolute bioavailability after oral administration” value was 5-10% and the “effect of food on bioavailability” value was “Drug interactions with food further reduce bioavailability”. Also, in data set [2], the “most frequent side effects” value is “headaches, dizziness, gastrointestinal pain and nausea”. In addition, the “nucleoside transport inhibition, neuroprotective effects” value in the data set with nucleoside transport is “nucleoside transport inhibitor with neuroprotective effects in cerebral ischemia”. In addition, in data set [3], the constant migration rate result is “about 2 mg/cm^2 /24 h” and the “sustained daily dosage provided by transdermal delivery” value turned out to be 30 mg. For the same compound, in data set [4] (neuroprotective effect), the “rate of deterioration / acute improvement of patient's condition” value is “although not producing an acute improvement in the patient's condition, does cause a reduction in the rate of deterioration”. The “clinical parameters in dementia” value in data set [4] (placebo controlled trials, mild to moderate dementia) is on record as “positively influence clinical parameters in placebo controlled trials”.
